{"source": "patent US11434237B2", "about": "“Selective ligands for tau aggregates” (KARIN & STEN MORTSTEDT CBD SOLUTIONS AB, priority 2017, dated 2022)", "key": {"Aβ aggregates": {"molecular_target": "T1, Aβ aggregates (Homo sapiens, UniProt P05067)", "T1 construct": "compound and antibody double staining of Aβ or tau aggregates; from tissue; host or cells: human AD brain tissue sections (20 μm)", "T1 sequence (P05067 672-713 limits assumed)": "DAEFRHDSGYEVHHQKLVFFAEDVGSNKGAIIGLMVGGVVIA", "assay": "Compound and antibody 4G8 double staining of AD brain tissue sections", "assay_type": "binding", "details": "for Overlap between Fluorescence from tested compound and fluorescence from 4G8 observed / Fluorescence from tested compound observed / Staining of / selectivity for Aβ and tau aggregates in AD brain sections: 100 nM compound; for Overlap between Fluorescence from tested compound and fluorescence from 4G8 observed / Fluorescence from tested compound observed: human AD brain tissue sections; for Overlap between Fluorescence from tested compound and fluorescence from 4G8 observed: Aβ antibody 4G8; for Fluorescence from tested compound observed: double staining with Aβ antibody 4G8; for Fluorescence from 4G8 observed: signal of Aβ antibody 4G8 in the section stained with 100 nM of the compound; for Staining of / selectivity for Aβ and tau aggregates in AD brain sections: stained in combination with 4G8", "experimental": "(§1) To achieve compound and antibody double staining of Aβ or tau aggregates, tissue sections (20 μm) from human AD brain were fixed in 70% EtOH at 4° C. for 3 min, rehydrated in distilled water and then incubated in PBS for 30 min. Sections were blocked and permeabilized in PBS with 5% normal goat serum and 0.1% triton X-100 (blocking buffer) for 1 h at room temperature (RT). Antibody 4G8 (Biolegend, San Diego, Calif., USA) reactive to Aβ, and AT100 (Thermo Fisher Scientific, Waltham, Mass., USA) directed against tau phosphorylated at […] (3) were diluted 1:500 and 1:1000, respectively, in blocking buffer and added to the sections. After 16 h incubation at 4° C. unbound antibody was removed by washing in PBS with 0.1% triton X-100 (PBS-T) 3×10 min. To visualize antibody binding to Aβ or tau aggregates sections were incubated with goat anti-mouse secondary antibody labelled with Alexa 647 (Thermo Fisher Scientific). The antibody was diluted 1:200 in blocking buffer and after 1 h incubation at RT sections were washed in PBS 3×10 min. Example Compound 3a, Example Compound 3b, Example Compound 3c, Example Compound 3d, Example Compound 3e, Example Compound 3f, Example Compound 3g, Example Compound 3h, Example Compound 3i, Example Compound 3j, Example Compound 3k, Example Compound 3m, Example Compound 3n, Example Compound 3o, Example Compound 3p, Example Compound 3q, Example Compound 3r, Example Compound 3s, Example Compound 3t, Example Compound 3u, Example Compound 8a, Comparative Example 1, Comparative Example 2, Comparative Example 3 and Comparative Example 4 were dissolved in DMSO to a concentration of 1.5 mM and then further diluted in PBS to a final concentration of 100 nM compound prior to staining. The tissue sections were then stained for 30 min at RT with these freshly prepared solutions containing 100 nM of the respective compound in PBS. After three washes in PBS the sections were mounted in Dako mounting medium for fluorescence (Dako Cytomation, Glostrup, Denmark) and allowed to dry overnight before analysis. Fluorescence images were collected using an inverted LSM 780 confocal microscope (Carl Zeiss, Oberkochen, Germany) with the following excitation/emission wavelengths optimized for each compound: 458/484-600 (Comparative Example 1, Comparative Example 3), 561/569-648 (Example Compound 3a, Example Compound 3b, Example Compound 3c, Example Compound 3d, Example Compound 3e, Example Compound 3f, Example Compound 3g, Example Compound 3h, Example Compound 3i, Example Compound 3j, Example Compound 3k, Example Compound 3m, Example Compound 3n, Example Compound 3o, Example Compound 3p, Example Compound 3q, Example Compound 3r, Example Compound 3s, Example Compound 3t, Example Compound 3u, Example Compound 8a, Comparative Example 2 and Comparative Example 4) and 633/638-755 (Alexa 647). To visualize autofluorescent lipofuscin excitation/emission wavelengths 405/410-480 or 405/410-514 were used."}, "tau aggregates": {"molecular_target": "T2, tau aggregates (Homo sapiens, UniProt P10636)", "T2 construct": "tissue sections (20 μm) from human AD brain; from tissue; host or cells: human AD brain tissue sections (20 μm)", "T2 sequence (P10636 1-441 isoform P10636-8)": "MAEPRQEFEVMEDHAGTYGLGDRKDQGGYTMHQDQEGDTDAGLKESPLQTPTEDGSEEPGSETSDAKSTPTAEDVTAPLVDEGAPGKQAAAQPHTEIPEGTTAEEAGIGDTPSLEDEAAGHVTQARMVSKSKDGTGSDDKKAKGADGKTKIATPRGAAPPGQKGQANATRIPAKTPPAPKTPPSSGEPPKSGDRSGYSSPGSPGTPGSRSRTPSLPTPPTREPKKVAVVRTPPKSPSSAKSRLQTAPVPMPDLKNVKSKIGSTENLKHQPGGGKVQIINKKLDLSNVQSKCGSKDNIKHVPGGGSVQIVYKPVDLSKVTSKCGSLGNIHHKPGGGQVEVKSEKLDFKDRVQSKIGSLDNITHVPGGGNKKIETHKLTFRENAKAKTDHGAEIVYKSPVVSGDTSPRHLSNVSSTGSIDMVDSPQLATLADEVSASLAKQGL", "assay": "Compound and antibody AT100 double staining of AD brain tissue sections", "assay_type": "binding", "details": "for Labelling of immune-positive NFTs and dystrophic neurites / Fluorescence from tested compound observed / Overlap between Fluorescence from tested compound and fluorescence from AT-100 observed: 100 nM compound; for Labelling of immune-positive NFTs and dystrophic neurites: AT100 co-staining, AD brain sections; for Fluorescence from tested compound observed / Overlap between Fluorescence from tested compound and fluorescence from AT-100 observed: human AD brain tissue sections; for Fluorescence from tested compound observed: double staining with tau antibody AT-100; for Overlap between Fluorescence from tested compound and fluorescence from AT-100 observed: tau antibody AT-100; for Fluorescence from AT-100 observed: signal of tau antibody AT-100 in the section stained with 100 nM of the compound", "experimental": "as §1"}}, "note": "Entries after “also recorded” stand apart in the source; their conditions may differ."}
{"smiles": "COC(=O)c1ccc(-c2ccc(/C=C/c3sc4ccccc4[n+]3C)s2)s1.[I-]", "note": "[Example Compound 3f]", "values": [{"measurement": "Overlap between Fluorescence from tested compound and fluorescence from 4G8 observed", "setting": "Aβ aggregates", "value": "no correlation and no"}, {"measurement": "Fluorescence from tested compound observed", "setting": "Aβ aggregates", "value": "yes"}, {"measurement": "Fluorescence from 4G8 observed", "setting": "Aβ aggregates", "value": "yes"}, {"measurement": "Labelling of immune-positive NFTs and dystrophic neurites", "setting": "tau aggregates", "value": "labelled both immune-positive NFTs and dystrophic neurites"}, {"measurement": "Fluorescence from tested compound observed", "setting": "tau aggregates", "value": "yes"}, {"measurement": "Overlap between Fluorescence from tested compound and fluorescence from AT-100 observed", "setting": "tau aggregates", "value": "yes"}, {"measurement": "Fluorescence from AT-100 observed", "setting": "tau aggregates", "value": "yes"}]}
{"smiles": "CC[n+]1c(/C=C/c2ccc(-c3ccc(OC)s3)s2)sc2ccccc21.[I-]", "note": "[Example Compound 3h]", "values": [{"measurement": "Overlap between Fluorescence from tested compound and fluorescence from 4G8 observed", "setting": "Aβ aggregates", "value": "no correlation and no"}, {"measurement": "Fluorescence from tested compound observed", "setting": "Aβ aggregates", "value": "yes"}, {"measurement": "Fluorescence from 4G8 observed", "setting": "Aβ aggregates", "value": "yes"}, {"measurement": "Labelling of immune-positive NFTs and dystrophic neurites", "setting": "tau aggregates", "value": "labelled both immune-positive NFTs and dystrophic neurites"}, {"measurement": "Fluorescence from tested compound observed", "setting": "tau aggregates", "value": "yes"}, {"measurement": "Overlap between Fluorescence from tested compound and fluorescence from AT-100 observed", "setting": "tau aggregates", "value": "yes"}, {"measurement": "Fluorescence from AT-100 observed", "setting": "tau aggregates", "value": "yes"}]}
{"smiles": "CC[n+]1c(/C=C/c2ccc(-c3ccc4nsnc4c3)s2)sc2ccccc21", "note": "[Example Compound 3n]", "values": [{"measurement": "Overlap between Fluorescence from tested compound and fluorescence from 4G8 observed", "setting": "Aβ aggregates", "value": "no correlation and no"}, {"measurement": "Fluorescence from tested compound observed", "setting": "Aβ aggregates", "value": "yes"}, {"measurement": "Fluorescence from 4G8 observed", "setting": "Aβ aggregates", "value": "yes"}, {"measurement": "Labelling of immune-positive NFTs and dystrophic neurites", "setting": "tau aggregates", "value": "labelled both immune-positive NFTs and dystrophic neurites"}, {"measurement": "Fluorescence from tested compound observed", "setting": "tau aggregates", "value": "yes"}, {"measurement": "Overlap between Fluorescence from tested compound and fluorescence from AT-100 observed", "setting": "tau aggregates", "value": "yes"}, {"measurement": "Fluorescence from AT-100 observed", "setting": "tau aggregates", "value": "yes"}]}
{"smiles": "CC[n+]1c(/C=C/c2ccc(-c3cccs3)s2)sc2ccccc21", "note": "[Example Compound 3c]", "values": [{"measurement": "Overlap between Fluorescence from tested compound and fluorescence from 4G8 observed", "setting": "Aβ aggregates", "value": "no correlation and no"}, {"measurement": "Fluorescence from tested compound observed", "setting": "Aβ aggregates", "value": "yes"}, {"measurement": "Fluorescence from 4G8 observed", "setting": "Aβ aggregates", "value": "yes"}, {"measurement": "Labelling of immune-positive NFTs and dystrophic neurites", "setting": "tau aggregates", "value": "labelled both immune-positive NFTs and dystrophic neurites"}, {"measurement": "Fluorescence from tested compound observed", "setting": "tau aggregates", "value": "yes"}, {"measurement": "Overlap between Fluorescence from tested compound and fluorescence from AT-100 observed", "setting": "tau aggregates", "value": "yes"}, {"measurement": "Fluorescence from AT-100 observed", "setting": "tau aggregates", "value": "yes"}]}
{"smiles": "O=C(O)Cc1cc(-c2ccc(-c3nc4ccccc4s3)s2)sc1-c1cc(C(=O)O)cs1", "note": "[Comparative Example 3]", "values": [{"measurement": "Overlap between Fluorescence from tested compound and fluorescence from 4G8 observed", "setting": "Aβ aggregates", "value": "yes"}, {"measurement": "Fluorescence from tested compound observed", "setting": "Aβ aggregates", "value": "yes"}, {"measurement": "Staining of / selectivity for Aβ and tau aggregates in AD brain sections", "setting": "Aβ aggregates", "value": "staining of both Aβ and tau aggregates; also recorded: no selectivity"}, {"measurement": "Fluorescence from 4G8 observed", "setting": "Aβ aggregates", "value": "yes"}]}
{"smiles": "COC(=O)Cc1cc(-c2ccc(-c3nc4ccccc4s3)s2)sc1-c1cc(C(=O)OC)cs1", "note": "[Comparative Example 2]", "values": [{"measurement": "Fluorescence from tested compound observed", "setting": "Aβ aggregates", "value": "no"}, {"measurement": "Staining of / selectivity for Aβ and tau aggregates in AD brain sections", "setting": "Aβ aggregates", "value": "did not display any substantial staining; also recorded: no staining"}, {"measurement": "Fluorescence from 4G8 observed", "setting": "Aβ aggregates", "value": "yes"}]}
{"smiles": "COC(=O)c1csc(-c2ccc(-c3ccc(-c4nc5ccccc5s4)s3)s2)c1", "note": "[Comparative Example 4]", "values": [{"measurement": "Fluorescence from tested compound observed", "setting": "Aβ aggregates", "value": "no"}, {"measurement": "Staining of / selectivity for Aβ and tau aggregates in AD brain sections", "setting": "Aβ aggregates", "value": "did not display any substantial staining; also recorded: no staining"}, {"measurement": "Fluorescence from 4G8 observed", "setting": "Aβ aggregates", "value": "yes"}]}
{"smiles": "CCn1c(/C=C/c2ccc(-c3ccc(C(=O)OC)s3)s2)nc2ccccc21", "note": "[Comparative Example 1]", "values": [{"measurement": "Overlap between Fluorescence from tested compound and fluorescence from 4G8 observed", "setting": "Aβ aggregates", "value": "yes"}, {"measurement": "Fluorescence from tested compound observed", "setting": "Aβ aggregates", "value": "Yes"}, {"measurement": "Staining of / selectivity for Aβ and tau aggregates in AD brain sections", "setting": "Aβ aggregates", "value": "staining towards immune-positive Aβ aggregates, as well as some weak staining of tau-like pathology; also recorded: selectivity for Aβ"}, {"measurement": "Fluorescence from 4G8 observed", "setting": "Aβ aggregates", "value": "yes"}]}
